Earlier results, collected in patent US10918602B2, “Compositions and methods for preparing polymeric films loaded with uniformly distributed drug particles” (New Jersey Institute of Technology, priority 2017, dated 2021).

Conditions: literature examples

CN1C(=O)CN=C(c2ccccc2)c2cc(Cl)ccc21 [diazepam]
Diffusional exponent n: 0.82

COc1ccc2c(c1)c(CC(=O)O)c(C)n2C(=O)c1ccc(Cl)cc1 [indomethacin]
Diffusional exponent n: 0.9
